Assay results taken from PMC9742383, “From tryptamine to the discovery of efficient multi-target directed ligands against cholinesterase-associated neurodegenerative disorders” (Frontiers in Pharmacology, 2022).
Like-named read-outs stand apart in the source and are kept apart here.

Legend:
BuChE = BuChE (Equus caballus, UniProt P81908); assay: Ellman colorimetric assay; assay type: biochemical; design: gene BCHE; native enzyme from equine serum, purchased from Sigma-Aldrich
in vitro [1] = assay: in vitro; design: MTT cytotoxicity, absorbance at 570 nm, HT-22 mouse hippocampal neuronal cells; conditions: mouse, read-out: IC50 ± SD / HT-22 ^a
Description: The cell lines present in this study were purchased from the China Center for Type Collection (CCTCC, China). For cytotoxicity assay, HT-22, BV2, SH-SY5Y, HepG2, and LO2 cells were incubated in 96-well plates at the density of 5 × 10³ per well. After incubation for 12 h at 37°C, the tested compounds with the required concentrations were added to the corresponding wells and continuously incubated for 24 h at 37°C. Then, the prepared MTT (3-[4,5-dimethyl-2-thiazolyl]-2,5-diphenyl-2H-tetrazolium bromide) solution was added to each well and co-incubated for another 4 h at 37°C. Then, the supernatant was removed, and 100 μl DMSO was added to each well. The OD value of each well was detected at 570 nm using a microplate reader (Bio-Rad Laboratories, CA, United States). The IC50 values were calculated using IBM SPSS Statistics 25.0 software. All experiments were performed in triplicate, and the results were shown as the mean ± SD. In order to explore the applicability of the synthesized CTDs in neurological diseases, the neuronal cytotoxicity of the synthesized compounds was evaluated on mouse hippocampal neuronal cell line HT-22. […] In view of these CTDs endowed strong inhibition efficacy on BuChE, we preliminarily evaluated their safety range by comparing their IC50 values on cytotoxicity and BuChE inhibitory activity. […] Therefore, the series of compounds with dibenzyl groups, especially compounds bearing ring carbon alkyl chains (2f-2h) and tertiary amine residues (2j-2u) with little cytotoxicity on HT-22, can be considered as potential lead building blocks for further structure optimization to develop novel effective agents against neurological diseases.

AChE = target: T1, AChE (Electrophorus electricus, UniProt O42275); assay: Ellman colorimetric assay; assay type: biochemical
T1 construct: native enzyme, Type V-S lyophilized powder, Sigma-Aldrich

in vitro [2] = assay: in vitro; design: species or system LO2, HepG2; MTT cytotoxicity, absorbance at 570 nm; conditions: human, sh-sy5y; read-out: ^a IC50 ± SD (μM) / SH-SY5Y
Description: The cell lines present in this study were purchased from the China Center for Type Collection (CCTCC, China). For cytotoxicity assay, HT-22, BV2, SH-SY5Y, HepG2, and LO2 cells were incubated in 96-well plates at the density of 5 × 10³ per well. After incubation for 12 h at 37°C, the tested compounds with the required concentrations were added to the corresponding wells and continuously incubated for 24 h at 37°C. Then, the prepared MTT (3-[4,5-dimethyl-2-thiazolyl]-2,5-diphenyl-2H-tetrazolium bromide) solution was added to each well and co-incubated for another 4 h at 37°C. Then, the supernatant was removed, and 100 μl DMSO was added to each well. The OD value of each well was detected at 570 nm using a microplate reader (Bio-Rad Laboratories, CA, United States). The IC50 values were calculated using IBM SPSS Statistics 25.0 software. All experiments were performed in triplicate, and the results were shown as the mean ± SD. In order to further evaluate the applicability of the compounds with dibenzyl groups for neurological diseases, we also tested the cytotoxicity of the selected compounds (2f, 2h, 2j, 2m, 2o-2r, 2t, and 2u) bearing little toxicity on HT-22 cells, microglia cell line BV2, and human neuroblastoma cell line SH-SY5Y, which are widely used in the study of neurological diseases. […] In view of some carbamate-based ChE inhibitors reported to be hepatotoxic, we further performed the preliminary evaluation of the hepatotoxicity of the selected compounds on human normal liver cell line LO2 and human hepatocellular carcinoma cell line HepG2.

[3] = read-out: IC50 ± SD ^a / BuChE ^a
[4] = ht-22 hippocampal neuronal cells
[5] = read-out: IC50 ± SD ^a / AChE ^a

T1 sequence (O42275 24-633): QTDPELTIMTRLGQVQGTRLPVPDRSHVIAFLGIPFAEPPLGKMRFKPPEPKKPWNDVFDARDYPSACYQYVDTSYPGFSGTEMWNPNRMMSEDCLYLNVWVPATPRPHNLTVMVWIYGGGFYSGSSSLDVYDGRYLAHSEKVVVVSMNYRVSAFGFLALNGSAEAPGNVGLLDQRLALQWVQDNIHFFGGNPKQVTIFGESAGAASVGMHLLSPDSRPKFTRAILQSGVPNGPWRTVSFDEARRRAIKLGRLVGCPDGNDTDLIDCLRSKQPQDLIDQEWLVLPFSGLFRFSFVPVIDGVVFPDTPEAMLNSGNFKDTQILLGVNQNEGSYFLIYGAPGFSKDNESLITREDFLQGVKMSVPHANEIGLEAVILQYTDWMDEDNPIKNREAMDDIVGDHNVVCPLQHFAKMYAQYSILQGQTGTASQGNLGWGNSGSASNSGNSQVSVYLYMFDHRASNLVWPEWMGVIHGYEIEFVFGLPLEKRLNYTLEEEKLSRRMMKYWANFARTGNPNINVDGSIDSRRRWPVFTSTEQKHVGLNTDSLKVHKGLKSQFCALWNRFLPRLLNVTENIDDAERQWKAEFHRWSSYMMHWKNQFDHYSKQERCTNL
BuChE, sequence (P81908 whole entry): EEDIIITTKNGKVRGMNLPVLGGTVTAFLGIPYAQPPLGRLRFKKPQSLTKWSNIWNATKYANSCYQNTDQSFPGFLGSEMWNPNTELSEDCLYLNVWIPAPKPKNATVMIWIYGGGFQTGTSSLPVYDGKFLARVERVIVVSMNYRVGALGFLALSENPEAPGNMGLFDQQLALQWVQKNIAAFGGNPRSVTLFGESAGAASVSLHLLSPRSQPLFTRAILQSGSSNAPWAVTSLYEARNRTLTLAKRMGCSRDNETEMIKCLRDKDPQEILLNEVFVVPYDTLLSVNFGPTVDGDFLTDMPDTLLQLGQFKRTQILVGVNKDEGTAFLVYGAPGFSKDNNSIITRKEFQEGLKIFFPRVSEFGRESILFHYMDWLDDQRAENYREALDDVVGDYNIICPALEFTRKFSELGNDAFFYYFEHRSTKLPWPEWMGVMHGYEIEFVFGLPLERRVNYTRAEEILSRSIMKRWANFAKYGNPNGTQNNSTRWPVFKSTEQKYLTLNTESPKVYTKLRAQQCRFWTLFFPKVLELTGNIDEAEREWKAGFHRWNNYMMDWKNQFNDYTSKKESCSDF

SMILES | IC50 (BuChE; [3]) [µM] | CC50 at 24 h (in vitro [1]; [4]) [µM] | IC50 (AChE; [5]) [µM] | IC50 (BuChE; read-out: IC50 ± SD / BuChE ^a) [µM] | CC50 at 24 h (in vitro [1]; ht-22) [µM] | IC50 (AChE; read-out: IC50 ± SD / AChE ^a) [µM] | CC50 at 24 h (in vitro [2]) [µM]
CCCNC(=O)Oc1ccc2[nH]cc(CCNCc3ccccc3)c2c1 [3a, 3-(2-(benzylamino)ethyl)-1H-indol-5-yl propylcarbamate] | 0.0182 ± 0.00068 | 31.3 ± 2.32 | 1.95 | – | – | – | –
CCCCCCNC(=O)Oc1ccc2[nH]cc(CCN)c2c1 [4d, 3-(2-aminoethyl)-1H-indol-5-yl hexylcarbamate] | 0.0277 ± 0.00204 | 25.2 ± 1.37 | > 100 | – | – | – | –
O=C(Nc1ccccc1)Oc1ccc2[nH]cc(CCN(Cc3ccccc3)Cc3ccccc3)c2c1 [2i, 3-(2-(dibenzylamino)ethyl)-1H-indol-5-yl phenylcarbamate] | – | – | – | 0.0558 ± 0.00314 | 41.8 ± 2.31 | > 100 | –
CCCCCNC(=O)Oc1ccc2[nH]cc(CCN)c2c1 [4c, 3-(2-aminoethyl)-1H-indol-5-yl pentylcarbamate] | 0.121 ± 0.00838 | > 100 | > 100 | – | – | – | –
CCCN(CCC)C(=O)Oc1ccc2[nH]cc(CCN(Cc3ccccc3)Cc3ccccc3)c2c1 [2l, 3-(2-(dibenzylamino)ethyl)-1H-indol-5-yl dipropylcarbamate] | – | – | – | 0.0159 ± 0.00055 | 38.6 ± 0.9 | > 100 | –
CCCCN(CCCC)C(=O)Oc1ccc2[nH]cc(CCNCc3ccccc3)c2c1 [3m, 3-(2-(benzylamino)ethyl)-1H-indol-5-yl dibutylcarbamate] | 0.0974 ± 0.00853 | 3.87 ± 0.35 | 19.8 | – | – | – | –
O=C(Oc1ccc2[nH]cc(CCNCc3ccccc3)c2c1)N1CCOCC1 [3u, 3-(2-(benzylamino)ethyl)-1H-indol-5-yl morpholine-4-carboxylate] | 0.112 ± 0.00737 | 51.3 ± 2.55 | > 100 | – | – | – | –
CCCNC(=O)Oc1ccc2[nH]cc(CCN(Cc3ccccc3)Cc3ccccc3)c2c1 [2a, 3-(2-(dibenzylamino)ethyl)-1H-indol-5-yl propylcarbamate] | – | – | – | 0.0332 ± 0.00499 | 51.58 ± 0.05 | > 100 | –
CCCCCCNC(=O)Oc1ccc2[nH]cc(CCNCc3ccccc3)c2c1 [3d, 3-(2-(benzylamino)ethyl)-1H-indol-5-yl hexylcarbamate] | 0.019 ± 0.00029 | 16.3 ± 1.19 | 2.44 | – | – | – | –
CCCN(CCC)C(=O)Oc1ccc2[nH]cc(CCNCc3ccccc3)c2c1 [3l, 3-(2-(benzylamino)ethyl)-1H-indol-5-yl dipropylcarbamate] | 0.044 ± 0.00184 | 6.31 ± 0.39 | > 100 | – | – | – | –
CON(C)C(=O)Oc1ccc2[nH]cc(CCN(Cc3ccccc3)Cc3ccccc3)c2c1 [2o, 3-(2-(dibenzylamino)ethyl)-1H-indol-5-yl methoxy(methyl)carbamate] | – | – | – | 0.00865 ± 0.00034 | 72.1 ± 2.23 | 2.93 | > 100
CCN(CC)C(=O)Oc1ccc2[nH]cc(CCNCc3ccccc3)c2c1 [3k, 3-(2-(benzylamino)ethyl)-1H-indol-5-yl diethylcarbamate] | 0.0725 ± 0.00655 | 16 ± 0.39 | > 100 | – | – | – | –
CN(C)C(=O)Oc1ccc2[nH]cc(CCNCc3ccccc3)c2c1 [3j, 3-(2-(benzylamino)ethyl)-1H-indol-5-yl dimethylcarbamate] | 0.132 ± 0.00359 | 21.7 ± 0.72 | 1.91 | – | – | – | –
CON(C)C(=O)Oc1ccc2[nH]cc(CCNCc3ccccc3)c2c1 [3o, 3-(2-(benzylamino)ethyl)-1H-indol-5-yl methoxy(methyl)carbamate] | 0.0588 ± 0.00292 | 50.4 ± 1.07 | 2.61 | – | – | – | –
O=C(Oc1ccc2[nH]cc(CCN(Cc3ccccc3)Cc3ccccc3)c2c1)N(c1ccccc1)c1ccccc1 [2n, 3-(2-(dibenzylamino)ethyl)-1H-indol-5-yl diphenylcarbamate] | – | – | – | 0.2623 ± 0.00248 | > 100 | > 100 | –
O=C(Oc1ccc2[nH]cc(CCNCc3ccccc3)c2c1)N1CCC1 [3q, 3-(2-(benzylamino)ethyl)-1H-indol-5-yl azetidine-1-carboxylate] | 0.00258 ± 0.00013 | 57.8 ± 2.88 | 0.482 ± 0.00599 | – | – | – | –
O=C(Oc1ccc2[nH]cc(CCN(Cc3ccccc3)Cc3ccccc3)c2c1)N1CCCCC1 [2s, 3-(2-(dibenzylamino)ethyl)-1H-indol-5-yl piperidine-1-carboxylate] | – | – | – | 0.0334 ± 0.00521 | 42.7 ± 2.09 | > 100 | –
O=C(Oc1ccc2[nH]cc(CCNCc3ccccc3)c2c1)N1CCCC1 [3r] | 0.0405 ± 0.00179 | 31.7 ± 1.64 | 1.82 | – | – | – | –
O=C(Oc1ccc2[nH]cc(CCNCc3ccccc3)c2c1)N(c1ccccc1)c1ccccc1 [3n, 3-(2-(benzylamino)ethyl)-1H-indol-5-yl diphenylcarbamate] | 0.156 ± 0.00358 | 0.54 ± 0.03 | > 100 | – | – | – | –
CN(C(=O)Oc1ccc2[nH]cc(CCNCc3ccccc3)c2c1)c1ccccc1 [3p, 3-(2-(benzylamino)ethyl)-1H-indol-5-yl methyl(phenyl)carbamate] | 0.0254 ± 0.00027 | 11 ± 1.12 | 7.05 | – | – | – | –
O=C(Oc1ccc2[nH]cc(CCNCc3ccccc3)c2c1)N1CCCCCC1 [3t, 3-(2-(benzylamino)ethyl)-1H-indol-5-yl azepane-1-carboxylate] | 0.0232 ± 0.00094 | 11.9 ± 0.39 | > 100 | – | – | – | –
O=C(NC1CCCC1)Oc1ccc2[nH]cc(CCNCc3ccccc3)c2c1 [3g, 3-(2-(benzylamino)ethyl)-1H-indol-5-yl cyclopentylcarbamate] | 0.0136 ± 0.0007 | 18.2 ± 0.95 | 27.2 | – | – | – | –
O=C(NC1CCCC1)Oc1ccc2[nH]cc(CCN(Cc3ccccc3)Cc3ccccc3)c2c1 [2g, 3-(2-(dibenzylamino)ethyl)-1H-indol-5-yl cyclopentylcarbamate] | – | – | – | 0.0337 ± 0.00162 | 57.3 ± 4.3 | > 100 | –
CCCCCCNC(=O)Oc1ccc2[nH]cc(CCN(Cc3ccccc3)Cc3ccccc3)c2c1 [2d, 3-(2-(dibenzylamino)ethyl)-1H-indol-5-yl hexylcarbamate] | – | – | – | 0.00147 ± 0.00015 | 37.6 ± 1.92 | > 100 | –
O=C(Nc1ccccc1)Oc1ccc2[nH]cc(CCNCc3ccccc3)c2c1 [3i, 3-(2-(benzylamino)ethyl)-1H-indol-5-yl phenylcarbamate] | 0.11 ± 0.00522 | 18.4 ± 0.43 | 23.3 | – | – | – | –
CCCCNC(=O)Oc1ccc2[nH]cc(CCN(Cc3ccccc3)Cc3ccccc3)c2c1 [2b, 3-(2-(dibenzylamino)ethyl)-1H-indol-5-yl butylcarbamate] | – | – | – | 0.003 ± 0.00021 | 40.6 ± 1.12 | > 100 | –
CCCCNC(=O)Oc1ccc2[nH]cc(CCNCc3ccccc3)c2c1 [3b, 3-(2-(benzylamino)ethyl)-1H-indol-5-yl butylcarbamate] | 0.0237 ± 0.00118 | 18.5 ± 0.81 | 1.69 | – | – | – | –
O=C(NC1CCCCC1)Oc1ccc2[nH]cc(CCNCc3ccccc3)c2c1 [3h, 3-(2-(benzylamino)ethyl)-1H-indol-5-yl cyclohexylcarbamate] | 0.0435 ± 0.00335 | 11.6 ± 0.34 | > 100 | – | – | – | –
CCCCCCCNC(=O)Oc1ccc2[nH]cc(CCNCc3ccccc3)c2c1 [3e, 3-(2-(benzylamino)ethyl)-1H-indol-5-yl heptylcarbamate] | 0.0336 ± 0.00164 | 6.49 ± 0.34 | 1.13 | – | – | – | –
CCN(CC)C(=O)Oc1ccc2[nH]cc(CCN(Cc3ccccc3)Cc3ccccc3)c2c1 [2k, 3-(2-(dibenzylamino)ethyl)-1H-indol-5-yl diethylcarbamate] | – | – | – | 0.3209 ± 0.00206 | 54.68 ± 0.42 | > 100 | –
